According to patent US11400269B2, “Using alternating electric fields to increase permeability of the blood brain barrier” (Novocure GmbH, priority 2018, dated 2022):

Key:
rat brain (BBB) [1] = assay: Evans Blue accumulation in rat brain after alternating electric fields; assay type: in vivo
From the text: A set of in vivo experiments on rats was also run to quantify the increase in vessel permeability caused by exposure to the alternating electric fields. These experiments used Evans Blue (EB) dye, which is an azo dye that has a very high affinity for serum albumin (molecule size ˜69 kDa). Because of its large molecule size, serum albumin will ordinarily not be able to get past the BBB.
This was accomplished by shaving each rat's head, positioning a first pair of capacitively coupled electrodes on the top and bottom of the rat's head, and positioning a second pair of capacitively coupled electrodes on the left and right sides of the rat's head. A 100 kHz AC voltage was then applied between the top and bottom electrodes for 1 second, followed by a 100 kHz AC voltage applied between the right and left electrodes for 1 second, in a repeating sequence.
Under the conditions indicated in Table 1 and for the times indicated on Table 1, EB was injected intravenously into the tail vein under anesthesia (Once injected, EB immediately binds to Albumin), and the EB was allowed to circulate for 2 hours in all cases. The following steps were then performed: (a) intracardiac perfusion with saline; (b) brains are sliced in four pieces with a brain slicer; (c) pieces were photographed to localize staining and weighted; (d) EB extraction after tissue homogenization with TCA 50% (1:3) and centrifuge and (e) EB quantification at 610 nm. Results are given as μg EB per g tissue.
During the experiment, two animals from group 2 and one animal from group 4 were excluded (disrupted treatment, failure to inject EB into the tail vein). There were no differences between the animals treated with alternating electric fields (groups 1 and 2) and therefore these animals were grouped together. Similarly, there were no differences between sham heat and control animals (groups 3 and 4) and therefore these animals were grouped together.
EB accumulation in these four specific sections was then measured. In addition, a computer simulation was performed to determine the field strength in each of these four sections. […]

rat brain (BBB) [2] = assay: DCE-MRI contrast agent accumulation in rat brain; assay type: in vivo
Description: Yet another set of in vivo experiments was performed using Dynamic Contrast Enhanced MRI (DCE-MRI) with intravenous injection of Gadolinium contrast agent (Gd-DTPA, Magnetol, MW 547). In these experiments, test rats were treated with 100 kHz alternating electric fields for 72 h, and control rats were not treated with alternating electric fields for the same period of time. After this 72 h period, the alternating electric field was turned off, the rats were anesthetized, and a series of 60 T1w MRI scans (each of the scans having a duration of 28 seconds) was acquired. The gadolinium contrast agent was injected into the rat's tail vein during the 7th of these 60 scans.
The image analysis for each rat included (1) determining a baseline for each voxel by calculating the mean of the first six T1w MRI scans for each voxel (i.e., the scans prior to the injection of the gadolinium); (2) computing voxel by voxel, the percent signal change (i.e., gadolinium accumulation) over time relative to the baseline; (3) segmenting the brain into anterior, middle, and posterior segments; (4) generating for each of the three segments the mean percent signal change with respect to the baseline over all the voxels in the respective segment and then (5) averaging 4 consecutive time points (i.e. 4 scans) together. Finally, the data from all of the rats within any given group were averaged together. […]

[3] = 100 kHz fields 72 h vs sham heat/control, EB i.v., circulated 2 hours, measured as μg EB per g tissue, FIG. 5

| Structure (SMILES) | average EB accumulation in the rat brain, averaged over all four sections 1-4 (rat brain (BBB) [1]; 100 kHz fields 72 hours vs sham heat/control, p<0.05, FIG. 6) | EB accumulation, more posterior sections (3, 4) (rat brain (BBB) [1]; [3]) | EB accumulation, sections 1, 2 (frontal cerebrum) (rat brain (BBB) [1]; [3]) | contrast agent accumulation in the brain tissue (percent signal change) (rat brain (BBB) [2]; 100 kHz fields 72 h (n=6) vs control rats (n=3), i.v., FIG. 7) | contrast agent accumulation in the brain tissue (percent signal change) after recovery (rat brain (BBB) [2]; 72 hours fields followed by 96 hours without fields (n=7) vs control+96 h (n=3)) |
| --- | --- | --- | --- | --- | --- |
| Cc1cc(-c2ccc(/N=N/c3ccc4c(S(=O)(=O)O)cc(S(=O)(=O)O)c(N)c4c3O)c(C)c2)ccc1/N=N/c1ccc2c(S(=O)(=O)O)cc(S(=O)(=O)O)c(N)c2c1O [EB, Evans Blue] | higher accumulation | smaller increase (that was not statistically significant) | statistically significant increase |  |  |
| O=C([O-])CN(CCN(CC(=O)[O-])CC(=O)O)CCN(CC(=O)[O-])CC(=O)O.[Gd+3] [contrast agent, Gd-DTPA] |  |  |  | significantly higher | not significantly different |
